This is an account of results in US20090220562A1, “Osteogenic and anti-adipogenic oxysterols” (priority 2005, published 2009).

What all share (format): cell-based, mouse
For one data set, the system named is osteocalcin mRNA. The experiment in a line: Northern blotting for osteocalcin mRNA in M2-10B4 cells. Conditions: for synergy with oxysterols in induction of osteocalcin: BMP 50 ng/ml with 22S+20S (SS, 2.5 μM). How it is done: RNA isolation and Northern blot analysis—Following treatment of cells under appropriate experimental conditions, total RNA was isolated using the RNA isolation kit from Stratagene (La Jolla, Calif., U.S.A.). Total RNA ([…]) was run on a 1% agarose/formaldehyde gel and transferred to Duralon-UV membranes (Strategene, CA, U.S.A.) and cross-linked with UV light. The membranes were hybridized overnight at 60 degree C. with ^32P-labeled mouse osteocalcin cDNA probe, mouse lipoprotein lipase (LPL), mouse adipocyte protein 2 (aP^2) PCR-generated probes, human 28S or 18S rRNA probes obtained from Geneka Biotechnology (Montreal, Quebec, Canada) and Maxim Biotech (San Francisco, Calif., U.S.A.), respectively. The PCR products were generated using primer sets synthesized by Invitrogen (Carlsbad, Calif., U.S.A.) with the following specifications: mouse aP2 gene (accession no. M13261); sense (75-95) 5′-[…]-3′, antisense (362-383) 5′-[…]-3′, generating a PCR product of 309 base pairs. Mouse LPL (accession no. XM—134193); sense (1038-1058) 5′-[…]-3′, antisense (1816-1836) 5′-[…]-3′, generating a PCR product of 799 base pairs. The PCR products were gel-purified and sequenced by the UCLA sequencing core, showing the highest similarity to their respective GenBank entries. Following hybridization, the blots were washed twice at room temperature with 2×SSC+0.1% SDS, and then twice at 60 degree C. with 0.5×SSC+0.1% SDS, and exposed to X-ray film. The extent of gene induction was determined by densitometry.
After 4 and 8 days, total RNA from duplicate samples was isolated and analyzed for osteocalcin (Osc) and 28S rRNA expression by Northern blotting as described. FIG. 3E is a radiogram of Northern blotting for osteocalcin mRNA in M2 cells exposed to a control or combination of oxysterols for 4 or 8 days. FIG. 3F is a bar graph depicting the relative demsometric units of osteocalcin mRNA in M2 cells exposed to a control or combination of oxysterols for 4 -or 8 days. Data from densitometric analysis of the Northern blot is shown in (F) as the average of duplicate samples, normalized to 28S rRNA.
(§1) Next, a combination of 22R and 20S oxysterols (RS, 2.5 μM each) were added in the presence or absence of SC as indicated. After 3 days, ALP activity was measured as described earlier. […] (B) M2 cells were treated as described in (A) and after 10 days matrix mineralization in cultures was quantified by a ^45Ca incorporation assay as described earlier. […] (C) M2 cells were pretreated with 20 μM SC for 4 hours, followed by the addition of RS in the presence or absence of SC as described above. After 8 days, total RNA was isolated and analyzed for osteocalcin (Osc) and […] expression by Northern blotting as previously described. Data from densitometric analysis of the Northern blot is shown in (D) as the average of duplicate samples, normalized to 18S rRNA. (E) M2 cells at confluence were pretreated for 2 hours with control vehicle (C), or PLA2 inhibitors ACA (25 μM) and AACOCF3 (AAC, 20 μM), in osteogenic medium. Next, a combination of 22R and 20S oxysterols (RS, 2.5 μM) was added in the presence or absence of the inhibitors as indicated. After 3 days, ALP activity was measured as previously described. […] (F) M2 cells were treated as described in (E). After 10 days, matrix mineralization in cultures was quantified using a ^45Ca incorporation assay as previously described. Results from a representative of three experiments are shown, reported as the mean of quadruplicate determinations ±SD, normalized to protein concentration (p<0.01 for RS vs. RS+ACA and RS+AAC).
ALP activity was measured after 2 days, as described. […] (B) M2 cells were treated as described in (A). After 10 days, matrix mineralization in cultures was quantified using a ^45Ca incorporation assay as described. […] (C) M2 cells were treated under similar conditions as those described above. […]

Data set [1] concerns M2-10B4 marrow stromal cells. The experiment in a line: Alkaline phosphatase (ALP) activity assay on whole cell extracts of M2-10B4 marrow stromal cells. Conditions: for effect on oxysterol-induced alkaline phosphatase activity: 22R+20S (RS), pretreatment with SC-560 10 μM, ACA 25 μM, AACOCF3 20 μM or PD98059 20 μM, 3 days; for reversal of the effects of COX-1 and PLA2 inhibitors on oxysterol-induced alkaline phosphatase activity: 1 μM PGE2, 25 μM arachidonic acid, data not shown. How it is done: (§2) Cells: M2-10B4 mouse marrow stromal cell line obtained from American Type Culture Collection (ATCC, Rockville, Md., U.S.A.) was derived from bone marrow stromal cells of a (C57BL/6J x C3H/HeJ) Fl mouse, and support human and murine myelopoiesis in long-term cultures (as per ATCC) and have the ability to differentiate into osteoblastic and adipocytic cells. Unless specified, these cells were cultured in RPMI 1640 containing 10% heat-inactivated FBS, and supplemented with 1 mM sodium pyruvate, 100 U/ml penicillin, and 100 U/ml streptomycin (all from Irvine Scientific).
Cells were always treated at 90% confluence. […]
as §1, with “Results from a representative of three experiments are shown, reported as the mean of quadruplicate determinations ±SD, normalized to protein concentration (p<0.01 for RS vs. RS+ACA and RS+AAC).” left out

Data set [2] concerns M2-10B4 marrow stromal cells. The experiment in a line: Matrix mineralization (45Ca incorporation assay, von Kossa staining) in M2-10B4 marrow stromal cells. Conditions: for effect on oxysterol-induced mineralization: 22R+20S (RS), SC-560 10 μM, ACA 25 μM, AACOCF3 20 μM or PD98059 20 μM, 10 days. How it is done: as §2
Von Kossa and oil red O staining—Matrix mineralization in cell monolayers was detected by silver nitrate staining as previously described. Oil red O staining for detection of adipocytes was performed as previously described.
^45Ca incorporation assay—Matrix mineralization in cell monolayers was quantified using the ^45Ca incorporation assay as previously described.
After 14 days, mineralization was identified by a von Kossa staining, which appears black. FIG. 3C is a depiction of von Kossa staining of M2 cells exposed to various conditions.
After 14 days, matrix mineralization in cultures was quantified using a ^45Ca incorporation assay.
as §1
(A) M2 cells at confluence were pretreated for four hours with RPMI containing 1% FBS, followed by treatment with control vehicle or 5 μM 20S oxysterol for 1, 4, or 8 hours. Next total cell extracts were prepared and analyzed for levels of native or phosphorylated ERK (pERK) using specific antibodies as previously described. Data from a representative of four experiments are shown, each treatment shown in duplicate samples. (B) M2 cells at confluence were pretreated for 2 hours with control vehicle (C) or 20 μM PD98059 (PD) in osteogenic medium as previously described. Next, a combination of 22R and 20S oxysterols (RS, 5 μM each) were added to appropriate wells as indicated. After 10 days of incubation, matrix mineralization was quantified by the ^45Ca incorporation assay as previously described. […] (C) M2 cells at confluence were pretreated for 2 hours with 20 µM PD98059 (PD) in RPMI containing 5% FBS. Next, the cells were treated with control vehicle (C), 10 μM troglitazone (Tro), or 10 μM of 20S or 22S oxysterols, alone or in combination as indicated. After 10 days, adipocytes were visualized by oil Red O staining and quantified by light microscopy as previously described. […]

For a further data set, the system named is marrow stromal cells. The experiment in a line: Osteogenic differentiation of marrow stromal cells (marker not specified: ALP activity, osteocalcin mRNA, mineral formation). How it is done: The purpose of the study was to identify other osteogenic and anti-adipogenic oxysterols based on the chemical structure of previously identified oxysterols. The ability of such candidate oxysterol molecules to induce the formation of osteoblastic cells in cultures of marrow stromal cells (which are progenitors of osteoblastic cells that make bone) were tested. In order to assess osteogenic differentiation of cells, one or more markers of osteogenic differentiation were measured in untreated cells and cells treated with the test oxysterols. These markers included: alkaline phosphatase activity, osteocalcin mRNA expression and mineral formation in cultures of marrow stromal cells. Activation of either one or more than one marker by a single or combination oxysterols is indicative of their osteogenic property.

Setting [3] is: pretreatment, cyclopamine 1-10 μM, DKK-1 1 μg/ml.

`CC(C)CCC[C@@H](C)[C@H]1CC[C@H]2[C@@H]3[C@H](O)C=C4C[C@@H](O)CC[C@]4(C)[C@H]3CC[C@]12C` [7alpha-hydroxycholesterol, reference compound]: the “levels of osteocalcin mRNA relative to the control” value with osteocalcin mRNA (5 μM, eight days, M2-10B4) is on record as “did not appear to significantly affect”.
As to `CCCCCc1ccc(/C=C/C(=O)Nc2ccccc2C(=O)O)cc1` [ACA, reference compound], in data set [1], the “effect on oxysterol-induced alkaline phosphatase activity” value was “inhibited”. Also, the “effect on oxysterol-induced mineralization” value in data set [2] is recorded as “inhibited”.
Regarding `C[C@@H](CO)CCC[C@@H](C)[C@H]1CC[C@H]2[C@@H]3CC=C4C[C@@H](O)CC[C@]4(C)[C@H]3CC[C@]12C` [26-hydroxycholesterol], the “osteogenic property, alone or in combination with originally described oxysterols” value with marrow stromal cells is on record as “osteoinductive”.
Turning to DKK-1: Wnt signaling inhibitor, the “effect on SS-induced osteocalcin mRNA expression” value with osteocalcin mRNA (setting [3]) is “inhibited”. Moreover, in data set [1] (setting [3]), the “effect on SS-induced alkaline phosphatase (ALP) activity” value was “inhibited”. Also, the “effect on SS-induced mineralization” value in data set [2] (setting [3]) is on record as “inhibited”.
Regarding `COc1cccc(-c2cc(=O)c3ccccc3o2)c1N` [PD98059, reference compound], the “effect on oxysterol-induced mineralization” value in data set [2] was “inhibited”.
For `C[C@]12CC[C@H]3[C@@H](CCC4=C[C@H](O)CC[C@@H]43)[C@@H]1CC[C@@H]2O` [estren, reference compound], the osteogenic properties entry in the data set with marrow stromal cells is “did not have any osteogenic properties”.
The same measure, in the same setting: under `C[C@]12CC[C@@H]3c4ccc(O)cc4CC[C@H]3[C@@H]1CC[C@@H]2O` [beta-estradiol, reference compound] stands “did not have any osteogenic properties”.
For the molecule `O=S(=O)(c1ccccc1)N(CC(F)(F)F)c1ccc(C(O)(C(F)(F)F)C(F)(F)F)cc1` [TO-901317, reference compound], the “induction of osteocalcin gene expression” value with osteocalcin mRNA (after 10 days) is “did not induce”. Moreover, the “effect on alkaline phosphatase activity” value in data set [1] (1-10 μM) is “dose-dependent inhibition”. Also, the induction of mineralization result in data set [2] (after 10 days) was “did not induce”.
Take `CCCCC[C@H](O)/C=C/[C@H]1[C@H](O)CC(=O)[C@@H]1C/C=C\CCCC(=O)O` [PGE2, prostaglandin E2, reference compound]: in data set [1], the “reversal of the effects of COX-1 and PLA2 inhibitors on oxysterol-induced alkaline phosphatase activity” value is on record as “reversed”.
Regarding `CS(=O)(=O)Nc1ccc([N+](=O)[O-])cc1OC1CCCCC1` [NS-398, reference compound], the “inhibition of the osteogenic effects of oxysterol combinations” value in the data set with marrow stromal cells (22R+20S and 22S+20S, SC-560 1-20 μM, NS-398 20 μM (highest non-toxic dose)) is given as “negligible inhibitory effects”.
With `CCCCC/C=C\C/C=C\C/C=C\C/C=C\CCCC(=O)O` [arachidonic acid, reference compound], the “reversal of the effects of COX-1 and PLA2 inhibitors on oxysterol-induced alkaline phosphatase activity” value in data set [1] is recorded as “reversed”.
Consider `CCCCC/C=C\C/C=C\C/C=C\C/C=C\CCCC(=O)C(F)(F)F` [AACOCF3, reference compound], for which the “effect on oxysterol-induced alkaline phosphatase activity” value in data set [1] is on record as “inhibited”. Further, in data set [2], the “effect on oxysterol-induced mineralization” value is on record as “inhibited”.
BMP14: bone morphogenic protein 14: in the data set with osteocalcin mRNA (eight days), the “synergy with oxysterols in induction of osteocalcin” value was “synergistic induction”. The “synergy with oxysterols in induction of alkaline phosphatase activity” value in data set [1] is reported as “synergistically induced”. Further, the “synergy with oxysterols in induction of mineralization” value in data set [2] is “synergistically induced”.
Take `COc1ccc(-n2nc(C(F)(F)F)cc2-c2ccc(Cl)cc2)cc1` [SC-560, reference compound]: the “effect on oxysterol-induced osteocalcin gene expression” value with osteocalcin mRNA (22R+20S (RS), SC-560 20 μM, 8 days, PD98059 (data not shown)) is listed as “inhibited”. The “effect on oxysterol-induced mineralization” value in data set [2] is reported as “inhibited”.

B1: BMP7: bone morphogenic protein 7 (protein, UniProt P18075 293-431, looked up)
Bone morphogenetic protein 7: STGSKQRSQNRSKTPKNQEALRMANVAENSSSDQRQACKKHELYVSFRDLGWQDWIIAPEGYAAYYCEGECAFPLNSYMNATNHAIVQTLVHFINPETVPKPCCAPTQLNAISVLYFDDSSNVILKKYRNMVVRACGCH
For B1, the “synergy with oxysterols in induction of osteocalcin” value with osteocalcin mRNA (eight days) is “synergistic induction”. Besides, the “synergy with oxysterols in induction of alkaline phosphatase activity” value in data set [1] is on record as “synergistically induced”. Further, the “synergy with oxysterols in induction of mineralization” value in data set [2] is listed as “synergistically induced”.
